Where “and” joins values, the source holds several entries; their conditions need not be identical. Equal values may be shown once. Read-outs that look alike come from different tables or passages of the source.
How the values were obtained:
[1] = system: Pseudoperonospora cubensis; conditions: alone
Protocol: Test plants (cucumber, variety: Sagami hanpaku) were seeded and grown until the one true leaf stage. D-tagatose alone was diluted to 5%, 1%, 0.5% and 0.1%, and the combination of D-tagatose and other saccharide were diluted to be 0.5% and 0.5% solution respectively with distilled water, and then 10 ml of the dilution was sprayed on the test plant. Three days after spraying of the solution, a sporangium suspension of Pseudoperonospora cubensis containing 1×10^3/ml were inoculated by spraying on test plants and then put them for 16 hours in an inoculation chamber (20° C. to 23° C.) to promote disease. Seven days after inoculation the disease severity of the test plants was observed and the effectiveness of test sample was judged. Tests were carried out using two plants for each test set and the disease severity of the test plants was judged in accordance with the following criteria. The preventive value was calculated from the degree of disease severity as in example 1.
Synergistic effect was determined by the Colby's equation below.
X is the observed effect, in percentage, of the first active ingredient and, and Y is the observed effect, in percentage, of the second active ingredient. E is the effect, in percentage, of the mixture expected from additive contribution of the individual components.

Pythium glaminicola = conditions: 10 ml soil drench, from percentage of onset area after 2 weeks
Protocol: Four germinated rice seeds (variety: Koshihikari) were sowed in a pot (5×5 cm), which contains infected soil with Pythium glaminicola (mycelium 100 g/1 L soil). The pot was drenched with 10 ml of D-tagatose dilution and the seeds were covered with soil. After 2 weeks, the disease severity of the test plants per rice seedling in 25 cm^2 was observed and the effectiveness of test sample was judged. Tests were carried out in duplicate and the preventive value was calculated from percentage of onset area.

[2] = system: Pseudoperonospora cubensis; conditions: 5 ml soil drench, inoculated 5 days after drenching
Protocol: Test plants (cucumber, variety: Sagami hanpaku) were seeded and grown until the one true leaf stage. D-Tagatose was diluted to 5% and 1% with distilled water and then 5 ml of the dilution was drenched into the soil of the pot. Five days after drenching, a sporangium suspension of Pseudoperonospora cubensis containing 1×10^3/ml were noculated by spraying on the test plants and then put them for 16 hours in an inoculation chamber (20° C. to 23° C.) to promote disease. Seven days after inoculation the disease severity of the test plants was observed and the effectiveness of test sample was judged. Tests were carried out using two plants for each test set and the disease severity of the test plants was judged. The preventive value was calculated from the degree of disease severity as in Example 1.

Peronospora parasitica = test: cabbage downy mildew, pot test: preventive effect; conditions: inoculated 3 days after spraying
Protocol: Test plants (cabbage, variety: Shikidori) were seeded and grown until 4 leaves stage. […] Three days after spraying, a suspension containing condia of cucumber downy mildew (Peronospora parasitica) was inoculated by spraying on test plants. Seven days after inoculation the disease severity of the test plants was observed and the effectiveness of test sample was judged. Tests were carried out using two plants for each test set and the disease severity of test plants was judged in accordance with the following criteria. The preventive value was calculated from the degree of disease severity as in Example 1.

[3] = system: Pseudoperonospora cubensis; test: cucumber downy mildew, pot test: preventive effect; conditions: for Preventive value (3 DAS): inoculated 3 days after spraying; for Preventive value (5 DAS): inoculated 5 days after spraying
Protocol: Test plants (cucumber, variety: Sagami hanpaku) were seeded and grown until the one true leaf stage. D-Tagatose was diluted to 5%, 1% and 0.5% with distilled water and then 10 ml of the dilution was sprayed on the test plant. Three or five days after spraying, a sporangium suspension of Pseudoperonospora cubensis containing 1×10^3/ml were inoculated by spraying on test plants and then the plants were put for 16 hours in an incubation chamber (20° C. to 23° C.) to promote disease. Seven days after inoculation the disease severity of the test plants was observed and the effectiveness of test sample was judged. Tests were carried out using two plants for each test set and the disease severity of the test plants was judged in accordance with the following criteria. The preventive value was calculated from the degree of the disease severity.
(§1) 0 (No lesion) 1 (Lesion area was not more than 40%) 2 ((Lesion area was 40%-80%) 3 (Lesion area was not less than 80%)
Preventive value=100{1−(n/N)} N=disease severity of untreated leaf, n=disease severity of the tested leaf

[4] = system: Pseudoperonospora cubensis; test: cucumber downy mildew, pot test: curative effect
Protocol: Test plants (cucumber, variety: Sagami hanpaku) were seeded and grown until the one true leaf stage. And then a sporangium suspension of Pseudoperonospora cubensis containing 1×10^3/ml were sprayed on the back side of the leaves of test plants for inoculation and then the plants were put for 16 hours in an inoculation chamber (20° C. to 23° C.) to promote disease. For a curative test, the inoculated plants as described above were used.
D-Tagatose was diluted to 5%, 1% and 0.5% with distilled water and then 10 ml of the dilution was sprayed on the test plant. Seven days after the spraying of D-tagatose the disease severity of the test plants was observed and the effectiveness of test sample was judged. Tests were carried out using two plants for each test set and the disease severity of the test plants was judged. The control value was calculated from the degree of disease severity as in Example 1.

Phytophthora infestans [5] = assay type: in vivo; conditions: inoculated 3 days after spraying
Sphaerotheca fuligine = test: cucumber powdery mildew, pot test: preventive effect; conditions: inoculated 3 days after spraying
Protocol: Test plants (cucumber, variety: Sagami-hanpaku) were seeded and grown until the one true leaf stage. D-tagatose was diluted to 5% and 1% with distilled water and then 10 ml of the dilution was sprayed on the test plant. Three days after spraying, a condia suspension of Sphaerotheca fuligine was inoculated by spraying on test plants. Seven days after inoculation the disease severity of the test plants was observed and the effectiveness of test sample was judged. Tests were carried out using two plants for each test set and the disease severity of the test plants was judged in accordance with the following criteria.

Pythium aphanidermatum [6] = conditions: 10 ml soil drench, from germination rate after 2 weeks
Protocol: Five seeds of test plants (cucumber, variety: Sagami hanpaku) were sowed in a pot (5×5 cm), which contains infested soil with Pythium aphanidermatum (mycelium 100 g/1 L soil) and the seeds were covered with the soil. […] After 2 weeks, the disease severity of the test plants was observed and the effectiveness of test sample was judged. Tests were carried out in triplicate using 5 plants for each test set and the preventive value was calculated from the germination rate.

Phytophthora infestans [7] = test: whole plant or invertebrate; assay type: in vivo
[8] = system: Erysiphe graminis f.sp. hordei
Protocol: Test plants (barley, variety: Akashinriki) were seeded and grown until the one leaf stage. D-tagatose and fungicide were diluted to 5000 ppm and the concentrations listed in table 21, respectively, with distilled water and 10 ml of the dilution was sprayed thoroughly on the plants. Three days after spraying, a condia suspension of Erysiphe graminis f.sp. hordei was inoculated by spraying on test plants. 7 days after inoculation the disease severity of the test plants was observed and the effectiveness of test sample was judged.

[9] = system: Pseudoperonospora cubensis
Protocol: Test plants (cucumber, variety: Sagami hanpaku) were seeded and grown until the one true leaf stage. And then, a sporangium suspension of Pseudoperonospora cubensis containing 1×10^3/ml were spraying for inoculation on the back side of the leaves of test plants and then put for 16 hours in an inoculation chamber (20° C. to 23° C.) to promote disease. For a curative test, the inoculated plants as described above were used.
D-Tagatose was diluted to 5000 ppm and the fungicides were diluted to the concentrations listed in table 15, with distilled water, and 10 ml of the dilution was sprayed. Seven days after inoculation the disease severity of the test plants was observed and the effectiveness of test sample was judged.

Pythium aphanidermatum [10] = test: cucumber damping-off, pot test: soil drench of D-tagatose combined with fungicides
Protocol: Five seeds of test plants (cucumber, variety: Sagami hanpaku) were sowed in a pot (5×5 cm), which contains infested soil with Pythium aphanidermatum (mycelium 100 g/1 L soil) and was covered with soil. D-Tagatose was diluted to 5000 ppm and the fungicides were diluted to the concentrations listed in table 18, with distilled water. The pot was drenched with 10 ml of the dilution. After 2 weeks, the disease severity of the test plants was observed and the effectiveness of test sample was judged. Tests were carried out in triplicate using 5 plants for each test set and the preventive value was calculated from the germination rate.

Puccinia recondita [11] = system: Puccinia recondita
Protocol: Test plants (variety: Nourin 61 gou) were sowed and grown until two leaves stage.
D-Tagatose and fungicide were diluted to 10000 ppm and the concentration listed in table 19, respectively, with distilled water, and 10 ml of the dilution was sprayed thoroughly on the plants. Three days after the spraying of the dilution, the plants were inoculated with Puccinia recondita containing 1×10^3/ml and then put for 16 hours in an inoculation chamber (20° C. to 23° C.) to promote disease. Seven days after inoculation the disease severity of the test plants was observed and the effectiveness of test sample was judged.

[12] = system: Pseudoperonospora cubensis; remark: listed apart in the source
Protocol: Test plants (cucumber, variety: Sagami hanpaku) were seeded and grown until the one true leaf stage. D-Tagatose was diluted to 5000 ppm and the fungicides were diluted to the concentrations listed in table 14, with distilled water. And then 10 ml of the dilution was sprayed on the test plant. Three days after spraying of the solution, a sporangium suspension of Pseudoperonospora cubensis containing 1×10^3/ml were inoculated by spraying on test plants and then put for 16 hours in an inoculation chamber (20° C. to 23° C.) to promote disease. Seven days after inoculation the disease severity of the test plants was observed and the effectiveness of the test sample was judged. Tests were carried out using two plants for each test set and the disease severity of the test plants was judged in accordance with the following criteria. The preventive value was calculated from the degree of disease severity.
as §1
Preventive value=100{1−(n/N)} N=disease severity of untreated leaf, n=disease severity of the test leaf Synergistic effect was determined by Colby's equation.

Puccinia recondita [13] = test: wheat brown rust, field trial; conditions: 200 ppm
Protocol: Test plants (variety: Nourin 61 gou) were sowed and grown until heading stage. D-Tagatose was diluted to 5% with distilled water and sprayed thoroughly on the plants two times every 8 days. Three days after the first spraying of the dilution, wheat leaves inoculated with wheat fusarium blight (Puccinia recondita) were kept in the test plants. The disease severity of the test plants was observed 21 days after last spraying and the effectiveness of test sample was judged. Tests were carried out in duplicate. One plot of each test was 5 m^2. The disease severity of the test plants was judged in accordance with the following criteria. The preventive value was calculated from the degree of disease severity.

Pyricularia oryze = test: whole plant or invertebrate; assay type: in vivo; conditions: for pest or weed control at 250 ppm: Pyricularia, in Oryza sativa, 168 h, read-out: Preventive value
[14] = Phytophthora infestans, in Solanum lycopersicum, 168 h, read-out: Preventive value
[15] = Blumeria graminis, in Hordeum vulgare, 168 h, read-out: Preventive value
[16] = Botrytis cinerea, in Solanum lycopersicum, 168 h, read-out: Preventive value
[17] = Pseudoperonospora cubensis, in Cucumis sativus, 168 h, read-out: Preventive value
[18] = Plasmopara viticola, 168 h, read-out: Preventive value
[19] = Pythium aphanidermatum, in Cucumis sativus, soil, 336 h, read-out: Preventive value
[20] = Podosphaera fuliginea, in Cucumis sativus, 168 h, read-out: Preventive value
[21] = Puccinia recondita, in Triticum aestivum, 168 h, read-out: Preventive value

Protocol for Botrytis cinerea: Test plants (tomato, variety: Ogata-fukujyu) were seeded and grown until the three leaf stage. D-Tagatose and fungicide were diluted to 10000 ppm and the concentrations liste in table 23, respectively, with distilled water and 10 ml of the dilution was sprayed on the plants. Three days after spraying the solution, condia suspension of Botrytis cinerea were inoculated by spraying on test plants and then put for 16 hours in an inoculation chamber (20° C. to 23° C.) to promote disease. Seven days after inoculation, the disease severity of the test plants was observed and the effectiveness of test sample was judged.
Protocol for Plasmopara viticola: Test plants (variety: Neo Muscat) were seeded and grown until three leaves. D-Tagatose was diluted to 5000 ppm and the fungicides were diluted to the concentrations listed in table 16, with distilled water, and 10 ml of the dilution was sprayed on the plants. Three days after the spraying of the dilution, the plants were infected by spraying a sporangium suspension of Plasmopara viticola containing 1×10^3/ml and then put for 16 hours in an inoculation chamber (20° C. to 23° C.) to promote disease. The disease severity of the test plants was observed 7 days after inoculation, and the effectiveness of test sample was judged.
Protocol for Sphaerotheca fuliginea: Test plants (cucumber, variety: Sagami hanpaku) were seeded and grown until the one true leaf stage. D-Tagatose and fungicide were diluted to 5000 ppm and the concentrations listed in table 20, respectively, with distilled water and 10 ml of the dilution was sprayed thoroughly on the plants. Three days after spraying, a condia suspension containing of Sphaerotheca fuliginea were inoculated by spraying on test plants.
Seven days after inoculation the disease severity of the test plants was observed and the effectiveness of test sample was judged.

O=C[C@@H](O)[C@@H](O)[C@H](O)[C@H](O)CO [D-Mannose, D-mannose]
Preventive value ([1]; 5000 ppm): 0.0

O=C[C@H](O)[C@@H](O)[C@H](O)[C@H](O)CO [D-Glucose]
Preventive value (Pythium glaminicola; 10000 ppm): 3.0
Preventive value (Pythium glaminicola; 50000 ppm): 4.5
Preventive value ([2]; 10000 ppm): 0.0
Preventive value ([2]; 50000 ppm): 0.0
Preventive value (Peronospora parasitica; 10000 ppm spray): 0.0
Preventive value (Peronospora parasitica; 50000 ppm spray): 0.0
Preventive value (3 DAS) ([3]; 5000 ppm spray): 0.0
Preventive value (5 DAS) ([3]; 5000 ppm spray): 0.0
Preventive value (3 DAS) ([3]; 10000 ppm spray): 0.0
Preventive value (5 DAS) ([3]; 10000 ppm spray): 0.0
Preventive value (3 DAS) ([3]; 50000 ppm spray): 0.0
Preventive value (5 DAS) ([3]; 50000 ppm spray): 0.0
Preventive value (control value) ([4]; 5000 ppm sprayed after inoculation (curative)): 0.0
Preventive value (control value) ([4]; 10000 ppm sprayed after inoculation (curative)): 0.0
Preventive value (control value) ([4]; 50000 ppm sprayed after inoculation (curative)): 0.0
Preventive value (Phytophthora infestans [5]; 50000 ppm spray): 0.0
Preventive value (Phytophthora infestans [5]; 100000 ppm spray): 0.0
Preventive value (Sphaerotheca fuligine; 10000 ppm spray): 0.0
Preventive value (Sphaerotheca fuligine; 50000 ppm spray): 0.0
Preventive value (Pythium aphanidermatum [6]; 10000 ppm): 0.0
Preventive value (Pythium aphanidermatum [6]; 50000 ppm): 0.0

CSC(=O)c1cccc2nnsc12 [Acibenzolar-S-Methyl, acibenzolar-S-methyl]
Preventive value (3 DAS) ([3]; 50 ppm spray): 91.7
Preventive value (5 DAS) ([3]; 50 ppm spray): 99.2
Preventive value (control value) ([4]; 50 ppm sprayed after inoculation (curative)): 25.0
Preventive value ([1]; 50 ppm): 95.0

O=C(CO)[C@H](O)[C@H](O)[C@H](O)CO [D-Psicose, D-psicose]
Preventive value ([1]; 5000 ppm): 0.0

COCC(=O)N(c1c(C)cccc1C)C(C)C(=O)OC (centres unmarked) [Metalaxyl, metalaxyl]
pest or weed control at 2 ppm (Phytophthora infestans [7]; [14]): 67%
pest or weed control at 250 ppm [8, 15]: 0%
pest or weed control at 250 ppm (Botrytis cinerea; [16]): 0%
pest or weed control at 2 ppm [9, 17]: 33%
Preventive value ([2]; 300 ppm): 100.0
pest or weed control at 2 ppm (Plasmopara viticola; [18]): 50%
Preventive value (Peronospora parasitica; 600 ppm spray): 98.4
Preventive value (3 DAS) ([3]; 300 ppm spray): 100.0
Preventive value (5 DAS) ([3]; 300 ppm spray): 100.0
Preventive value (control value) ([4]; 300 ppm sprayed after inoculation (curative)): 100.0
pest or weed control at 5 ppm (Pythium aphanidermatum [10]; [19]): 83%
pest or weed control at 250 ppm (Sphaerotheca fuliginea; [20]): 0%
Preventive value (Phytophthora infestans [5]; 300 ppm spray): 93.3
pest or weed control at 250 ppm (Puccinia recondita [11]; [21]): 0%
Preventive value ([1]; 300 ppm): 100.0
Preventive value (Pythium aphanidermatum [6]; 300 ppm): 95.0
pest or weed control at 2 ppm [12, 17]: 67%

CC(C)(C)C(O)(CCc1ccc(Cl)cc1)Cn1cncn1 (centres unmarked) [Tebuconazole, tebuconazole]
pest or weed control at 0.4 ppm [8, 15]: 67%
pest or weed control at 10 ppm (Botrytis cinerea; [16]): 33%
pest or weed control at 0.4 ppm (Sphaerotheca fuliginea; [20]): 73%
pest or weed control at 0.4 ppm (Puccinia recondita [11]; [21]): 50%
D.D.S (Degree of disease severity), Av (Puccinia recondita [13]; average of plots): 0.2
Leaves number(n) of disease severity 0 (Puccinia recondita [13]; per plot (1, 2), 100 leaves): 98 and 100
Leaves number(n) of disease severity 2 (Puccinia recondita [13]; per plot (1, 2), 100 leaves): 0
Leaves number(n) of disease severity 3 (Puccinia recondita [13]; per plot (1, 2), 100 leaves): 0
Leaves number(n) of disease severity 4 (Puccinia recondita [13]; per plot (1, 2), 100 leaves): 0
Leaves number(n) of disease severity 5 (Puccinia recondita [13]; per plot (1, 2), 100 leaves): 0
Leaves number(n) of disease severity 6 (Puccinia recondita [13]; per plot (1, 2), 100 leaves): 0
P.V. (Preventive value), Av (Puccinia recondita [13]; sprayed two times every 8 days, rated 21 days after last spraying): 99.8

C=CCOC1=NS(=O)(=O)c2ccccc21 [Probenazole, probenazole]
Preventive value (3 DAS) ([3]; 100 ppm spray): 33.3
Preventive value (5 DAS) ([3]; 100 ppm spray): 95.0
Preventive value (control value) ([4]; 100 ppm sprayed after inoculation (curative)): 18.3
Preventive value ([1]; 100 ppm): 66.7

O=C(CO)[C@@H](O)[C@H](O)[C@H](O)CO [D-Fuctose, D-fructose]
Preventive value ([1]; 5000 ppm): 0.0

CO/C=C(/C(=O)OC)c1ccccc1Oc1cc(Oc2ccccc2C#N)ncn1 [azoxystrobin]
Preventive value (Phytophthora infestans [7]; alone, 10 ppm): 83
Preventive value ([8]; barley, compound alone, 0.4 ppm): 50
Preventive value (Botrytis cinerea; tomato, compound alone, 50 ppm): 50
Preventive value ([9]; alone, 10 ppm, curative): 50
Preventive value (Plasmopara viticola; alone, 10 ppm): 83
Preventive value (Pyricularia oryze; rice, compound alone, 10 ppm): 83
Preventive value (Pythium aphanidermatum [10]; alone, 50 ppm, soil drench): 50
Preventive value (Sphaerotheca fuliginea; cucumber, compound alone, 0.4 ppm): 67
Preventive value (Puccinia recondita [11]; wheat, compound alone, 2 ppm): 83
Preventive value ([12]; alone, 10 ppm): 50

C[Si](C)(C)CC(O)(Cn1cncn1)c1ccc(F)cc1 (centres unmarked) [simeconazole]
pest or weed control at 250 ppm (Phytophthora infestans [7]; [14]): 0%
pest or weed control at 0.4 ppm [8, 15]: 50%
pest or weed control at 50 ppm (Botrytis cinerea; [16]): 33%
pest or weed control at 250 ppm [9, 17]: 0%
pest or weed control at 250 ppm (Plasmopara viticola; [18]): 0%
pest or weed control at 250 ppm (Pyricularia oryze): 73%
pest or weed control at 250 ppm (Pythium aphanidermatum [10]; [19]): 0%
pest or weed control at 0.4 ppm (Sphaerotheca fuliginea; [20]): 83%
pest or weed control at 10 ppm (Puccinia recondita [11]; [21]): 67%
pest or weed control at 250 ppm [12, 17]: 0%

O=C(CO)[C@H](O)[C@@H](O)[C@H](O)CO [D-Sorbose, D-sorbose]
Preventive value ([1]; 5000 ppm): 0.0

Cc1cc(C2CC2)nc(Nc2ccccc2)n1 [cyprodinil]
pest or weed control at 250 ppm (Phytophthora infestans [7]; [14]): 0%
pest or weed control at 10 ppm [8, 15]: 17%
pest or weed control at 10 ppm (Botrytis cinerea; [16]): 73%
pest or weed control at 250 ppm [9, 17]: 0%
pest or weed control at 250 ppm (Plasmopara viticola; [18]): 0%
pest or weed control at 250 ppm (Pyricularia oryze): 73%
pest or weed control at 250 ppm (Pythium aphanidermatum [10]; [19]): 0%
pest or weed control at 10 ppm (Sphaerotheca fuliginea; [20]): 67%
pest or weed control at 250 ppm (Puccinia recondita [11]; [21]): 67%
pest or weed control at 250 ppm [12, 17]: 0%
